Experimental data published in ChEMBL document CHEMBL1141717, “New functionalized 1,2,4-trioxepanes: synthesis and antimalarial activity against multi-drug resistant P. yoelii in mice” (2008).
The source made the active and inactive calls. No cut-off for these calls is given here.

Key:
[1] = tested on: Plasmodium yoelii nigeriensis; assay: Antimalarial activity as reduced parasitaemia against multidrug-resistant Plasmodium yoelii nigeriensis infected Swiss mice (Mus musculus) at 96mg/kg peroral dose at day 4; format: functional; design: scale not given: the % may be the effect or the level left
[2] = tested on: Plasmodium yoelii nigeriensis; assay: Antimalarial activity as reduced parasitaemia against multidrug-resistant Plasmodium yoelii nigeriensis infected Swiss mice (Mus musculus) at 96 mg/kg intramuscular dose at day 4; format: functional; design: scale not given: the % may be the effect or the level left
[3] = tested on: Plasmodium yoelii nigeriensis; assay: Antimalarial activity as survivor numbers against multidrug-resistant Plasmodium yoelii nigeriensis infected Swiss mice (Mus musculus) at 96 mg/kg peroral dose at day 28; format: functional, organism-based; design: dose 96 mg/kg
[4] = tested on: Plasmodium yoelii nigeriensis; assay: Antimalarial activity as survivor numbers against multidrug-resistant Plasmodium yoelii nigeriensis infected Swiss mice (Mus musculus) at 96 mg/kg intramuscular dose at day 28; format: functional, organism-based; design: dose 96 mg/kg
[5] = tested on: Plasmodium yoelii nigeriensis; assay: Antimalarial activity as reduced parasitaemia against multidrug-resistant Plasmodium yoelii nigeriensis infected Swiss mice (Mus musculus) at 96 mg/kg peroral dose at day 28; format: functional; design: scale not given: the % may be the effect or the level left; conditions: route oral
[6] = tested on: Plasmodium yoelii nigeriensis; assay: Antimalarial activity as survivor numbers against multidrug-resistant Plasmodium yoelii nigeriensis infected Swiss mice (Mus musculus) at 48 mg/kg peroral dose at day 28; format: functional, organism-based; design: dose 48 mg/kg
[7] = tested on: Plasmodium yoelii nigeriensis; assay: Antimalarial activity as reduced parasitaemia against multidrug-resistant Plasmodium yoelii nigeriensis infected Swiss mice (Mus musculus) at 48 mg/kg peroral dose at day 4; format: functional; design: scale not given: the % may be the effect or the level left; conditions: route oral

SMILES	Activity [1]	Activity [2]	Activity [3]	Activity [4]	Activity [5]	Activity [6]	Activity [7]
C=C(c1ccc(-c2ccccc2)cc1)C1CCOC2(CCC(Nc3ccc(C(F)(F)F)cc3)CC2)OO1 (mixture of isomers)	68.3%	75.84%	inactive	inactive			
C=C(c1ccccc1)C1CCOC2(CCC(=CC(=O)OCC)CC2)OO1 (mixture of isomers)	88.76%	43.58%	inactive	inactive			
C=C(c1ccc(-c2ccccc2)cc1)C1CCOC2(CCC(=CC(=O)OCC)CC2)OO1 (mixture of isomers)	95.18%	35.32%	inactive	inactive			
C=C(c1ccccc1)C1CCOC2(CCC(Nc3ccccc3)CC2)OO1 (mixture of isomers)	78.58%	75.47%	inactive	inactive			
C=C(c1ccccc1)C1CCOC2(CCC(Nc3ccc(F)cc3)CC2)OO1 (mixture of isomers)	63.18%	50%	inactive	inactive			
C=C(c1ccc(Cl)cc1)C1CCOC2(CCC(Nc3ccccc3)CC2)OO1 (mixture of isomers)	98.49%	32.07%	inactive	inactive			
C=C(c1ccc(Cl)cc1)C1CCOC2(CCC(Nc3ccc(F)cc3)CC2)OO1 (mixture of isomers)	41.51%	58.37%	inactive	inactive			
C=C(c1ccc(-c2ccccc2)cc1)C1CCOC2(CCC(Nc3ccccc3)CC2)OO1 (mixture of isomers)	100%	99.01%		inactive	75%		
C=C(c1ccc(-c2ccccc2)cc1)C1CCOC2(CCC(Nc3ccc(F)cc3)CC2)OO1 (mixture of isomers)	98.08%	57.69%	inactive	inactive			
C=C(c1ccc(Cl)cc1)C1CCOC2(CCC(=CC(=O)OCC)CC2)OO1 (mixture of isomers)	85.87%	41.11%	inactive	inactive			
C=C(c1ccc(Cl)cc1)C1CCOC2(CCC(Nc3ccc(C(F)(F)F)cc3)CC2)OO1 (mixture of isomers)	87.17%	73.36%	inactive	inactive			
C=C(c1ccccc1)C1CCOC2(CCC(Nc3ccc(C(F)(F)F)cc3)CC2)OO1 (mixture of isomers)	100%	24.32%		inactive	40%		
CCO[C@H]1O[C@@H]2O[C@@]3(C)CC[C@H]4[C@H](C)CC[C@@H]([C@H]1C)[C@@]24OO3 [ARTEMOTIL]						Active	100%
